Source: ChEMBL document CHEMBL1141389, “Bioactive diterpenes from Orthosiphon labiatus and Salvia africana-lutea” (J Nat Prod, 2007)
In brackets after ≈: the same amount, converted by molar mass. Activity calls are given as the source filed them. No cut-off for these calls is given here.

Key:
MCF7 [1] = assay: Cytotoxicity against human MCF7 cells; type: cell-based
[2] = test system: Mycobacterium tuberculosis; assay: Antimycobacterial activity against Mycobacterium tuberculosis H37Rv ATCC 27294; type: functional
[3] = test system: Mycobacterium tuberculosis; assay: Antimycobacterial activity against Mycobacterium tuberculosis H37Rv ATCC 27294 at 650 uM; type: functional, organism-based
MCF7 [4] = assay: Cytotoxicity against human MCF7 cells at 650 uM; type: cell-based; details: mcf7, 650 µM

Row | SMILES | IC50 (MCF7 [1]) | MIC [2] | Activity [3] | Activity (MCF7 [4])
1 | COC(=O)[C@]12CCCC(C)(C)[C@@H]1CCc1cc(C(C)C)c(OC)c(O)c12 | 69 µM | 28 µM (≈ 10.1 µg/mL) |  | 
2 | CC(C)c1cc2c(c(O)c1O)[C@@]13CCCC(C)(C)[C@@H]1C[C@@H]2OC3=O [CARNOSOL] |  |  | inactive | Not Active
3 | C=C/C(C)=C/C[C@H]1C(=C)CC[C@@H]2[C@]1(C)C[C@@H](O)C[C@@]2(C)C(=O)O |  | 157 µM (≈ 50 µg/mL) |  | Not Active
4 | C=C/C(C)=C/C[C@H]1C(=C)CC[C@H]2[C@](C)(CO)C[C@H](O)C[C@]12C | 82 µM |  | inactive | 
